Results: patent US6949575B2, “Method of inhibiting amyloid protein aggregation and imaging amyloid deposits using aminoindane derivatives” (Pfizer Inc., priority 2000, dated 2005)
Where “and” joins values, the source holds several entries; their conditions need not be identical. Equal values may be shown once.

How the values were obtained:
[1] = molecular target: T1, Aβ (1-42) (Homo sapiens, UniProt P05067); assay: Batym Assay: Aβ (1-42) aggregation, Thioflavin T fluorescence; format: biochemical; settings: Aβ1-42 final 100 μM, 37° C., 1 day, read-out: BAYTM IC50
T1 construct: Required Aβ (1-42) (California Peptide); purchased California Peptide
Experimental: Required Aβ (1-42) (California Peptide) was dried from its HFIP stock solution. The Aβ (1-42) was dissolved in DMSO and then mixed with phosphate buffered saline (PBS) (pH 7.4). The mixed Aβ (1-42) solution was filtered with a Omnipore membrane 0.2-μm syringe filter (Millipore, Bedford, Mass.). The compound to be tested in DMSO (50× concentrate) was put into each well (0.5 μL/well) of a 96-well plate. The Aβ (1-42) solution was added into each well (24.5 μL/well). The plate was centrifuged at 1,000 g for 5 minutes and incubated at 37° C. for 1 day (Aβ1-42; final concentration 100 μM).
After incubation, Thioflavin T (ThT) (30 μM) solution in glycine-NaOH buffer (pH 8.5, 50 mM) was added into each well (250 μL/well), fluorescence was measured (ex=440/20 nm; em=485/20 nm) using a fluorescence plate reader. The inhibitory activity was calculated as the reduction of fluorescence with the following formula: Inhibition (%)={(F(Aβ)−F(Aβ+compound)}/{F(Aβ)−[…]}×100
The IC50s were calculated by a curve fitting program using the following equation. The data were obtained from two different experiments in triplicate. Inhibition (x)=100−100/{1+(x/IC50)^n}. • x=concentration of tested compound (M). • IC50=(M). • n=Hill coefficient.

[2] = molecular target: T2, Soluble Aβ(1-40) peptide (Homo sapiens, UniProt P05067); assay: BASSR (Beta-Amyloid Self-Seeding Radioassay): inhibitors of self-seeded amyloid fibril growth; format: biochemical; settings: 30 μM soluble Aβ(1-40) + 125I-labeled Aβ(1-40), 37° C., 3 to 5 hours, filtration; replicate values
T2 construct: Soluble Aβ(1-40) peptide; purchased Bachem, Torrance, Calif
Experimental: BASSR (Beta-Amyloid Self-Seeding Radioassay)
An assay for inhibitors of self-seeded amyloid fibril growth
Assay Buffer—[…] sodium phosphate, pH 7.5, 100 mM NaCl, 0.02% NaN3, 1 M urea (filter and store at 4° C.)
Soluble Aβ(1-40) peptide (Bachem, Torrance, Calif.)—2.2 mg/mL in deionized H2O (stored in aliquots at −20° C., keep on ice when thawed) will self-seed after 1 week storage. Typically, the solution should be stored until no lag phase is seen in the assay.
^125I-labeled Aβ(1-40)—150 to 350K cpm/μL in 100% acetonitrile—0.1% trifluoroacetic acid (TFA)—1% β-mercaptoethanol (aliquots stored at −20° C.). ^125I-labeled Aβ(1-40) can be made in accordance with the procedure set forth by H. Levine, III in Neurobiol. Aging, 16:755 (1995), which is hereby incorporated by reference, or this reagent may be purchased from Amersham, Arlington Heights, Ill. Final assay conditions: 30 μM soluble Aβ(1-40) in deionized water in assay buffer+20 to 50K cpm ^125I-labeled Aβ(1-40) per assay. Compound to be tested is dissolved in dimethylsulfoxide (DMSO), typically 5 to 50 mM stock, such that the final concentration of DMSO is <1% v/v in the assay. Assay: Reaction mixture for 50 assays (on ice) is comprised of 0.1 to 0.2 μL of ^125I-labeled A^125I-labeled Aβ(1-40)+1 μL of soluble Aβ(1-40)+13.5 μL assay buffer per assay. The following are the amounts of the components of the reaction mixture sufficient for 50 assay wells.
• 1) Prepare reaction mixture above by mixing components and storing on ice. • 2) Pipet 14.5 μL of reaction mixture into each of 50 wells on a polypropylene U-bottom 96-well microtiter plate on ice (Costar 3794). • 3) Add 1.7 μL of diluted compound to be tested to each well in a column of eight, including solvent control. Serial 3-fold dilutions from 1 mM (100 μM final) in assay buffer-urea=7 dilutions+zero. Each 96-well plate can therefore accommodate 11 samples+1 Congo Red control (0.039-5 μM final in 2-fold steps). • 4) Seal the plate with aluminum film (Beckman 538619) and incubate for 10 minutes on ice. • 5) Raise the temperature to 37° C. and incubate for 3 to 5 hours (depending on the lot of the peptide). • 6) Remove the aluminum film and add 200 μL/well of ice cold assay buffer with urea, collecting the radiolabeled fibrils by vacuum filtration through 0.2-μm pore size GVWP filters in 96-well plates (Millipore MAGV N22, Bedford, Mass.). Determine the radioactivity of the filters using standard methods well-known to those skilled in the art. BASST (Beta-Amyloid Self-Seeding, Thioflavin T)

T2 sequence (P05067 672-711 limits assumed): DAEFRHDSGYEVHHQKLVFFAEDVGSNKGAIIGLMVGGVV
T1 sequence (P05067 672-713 limits assumed): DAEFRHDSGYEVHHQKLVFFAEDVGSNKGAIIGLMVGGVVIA

IC50 [1] | IC50 [2] | SMILES
> 100 µM | > 100 µM | CCCCCN(CCCCC)C1Cc2ccc(Nc3ccc([N+](=O)[O-])cc3C(=O)O)cc2C1 (stereo not drawn) [Example 1, 2-[(2-N,N-di-n-pentylamino)-indan-5-yl]amino-5-nitro-benzoic Acid]
> 100 µM | > 100 µM (2×) and 30 µM | COc1ccc(Nc2ccc3c(c2)CC(NCc2ccc(Cl)c(Cl)c2)C3)c(C(=O)O)c1 (stereo not drawn) [Example 5, 2-[2-(3,4-Dichlorobenzylamino)-indan-5-ylamino]-5-methoxy-benzoic acid]
> 100 µM | > 100 µM | CCCCCN(CCCCC)C1Cc2ccc(Nc3ccc(C)cc3C(=O)O)cc2C1 (stereo not drawn) [Example 6, 2-(2-Dipentylamino-indan-5-yl-amino)-5-methyl-benzoic acid]
> 100 µM | > 100 µM (3×) and 15 µM | CCCCCN(CCCCC)C1Cc2ccc(Nc3ccc(C(=O)O)cc3[N+](=O)[O-])cc2C1 (stereo not drawn) [Example 7, 4-(2-Dipentylamino-indan-5-yl-amino)-3-nitro-benzoic Acid]
53.8 µM | > 100 µM (2×) and 90 µM and 10 µM | O=C(O)c1cc([N+](=O)[O-])ccc1Nc1ccc2c(c1)CC(NCc1ccc(F)cc1)C2 (stereo not drawn) [Example 10, 2-[2-(4-Fluorobenzylamino)-indan-5-ylamino]-5-nitro-benzoic acid]
> 100 µM | > 100 µM | CCCCCNC1Cc2ccc(Nc3ccc([N+](=O)[O-])cc3C(=O)O)cc2C1 (stereo not drawn) [Example 12, 2-[2-(n-Pentylamino)-indan-5-ylamino]-5-nitro-benzoic acid]
